According to the NIST ThermoML archive (doi:10.1021/je049919e):

What was measured:
[1] = Ring tensiometer
[2] = xn = mol fraction of the nth substance listed; conditions: Ring tensiometer

OCCO [1,2-ethanediol]
[1]
Conditions	surface tension liquid-gas [mN/m]
293.15 K	48.55
298.15 K	48.11
303.15 K	47.58
308.15 K	47.14
313.15 K	46.79
318.15 K	46.29
323.15 K	45.99

CC1CCCC(O)C1 (stereo not drawn) [3-methyl-1-cyclohexanol, (cis+trans)] + OCCO
surface tension liquid-gas [mN/m], [2]
Conditions	293.15 K	298.15 K	303.15 K	308.15 K	313.15 K	318.15 K	323.15 K
x1 = 0.05	36.72	36.51	36.29	36.07	35.88	35.66	35.44
x1 = 0.097	34.08	33.87	33.67	33.46	33.26	33.08	32.89
x1 = 0.258	31.57	31.25	30.97	30.7	30.42	30.15	29.91
x1 = 0.329	30.94	30.6	30.32	30.01	29.75	29.48	29.17
x1 = 0.389	30.57	30.23	29.98	29.65	29.38	29.09	28.76
x1 = 0.535	29.84	29.51	29.19	28.86	28.57	28.28	27.96
x1 = 0.623	29.39	29.05	28.75	28.43	28.14	27.82	27.42
x1 = 0.768	28.85	28.47	28.16	27.8	27.46	27.18	26.84
x1 = 0.864	28.43	28.02	27.68	27.34	27.03	26.69	26.33
x1 = 0.899	28.24	27.9	27.56	27.24	26.85	26.5	26.18
x1 = 1	27.82	27.48	27.12	26.76	26.4	26.06	25.7

OCCO [1,2-ethanediol] + CC1CCCC(O)C1
[2], x2 = 0
Conditions	surface tension liquid-gas [mN/m]
293.15 K	48.55
298.15 K	48.11
303.15 K	47.58
308.15 K	47.14
313.15 K	46.79
318.15 K	46.29
323.15 K	45.99

OCCO [1,2-ethanediol] + CC1CCC(O)CC1
[2], x2 = 0
Conditions	surface tension liquid-gas [mN/m]
293.15 K	48.55
298.15 K	48.11
303.15 K	47.58
308.15 K	47.14
313.15 K	46.79
318.15 K	46.29
323.15 K	45.99

CC1CCC(O)CC1 (stereo not given) [4-methylcyclohexanol]
[1]
Conditions	surface tension liquid-gas [mN/m]
293.15 K	27.63
298.15 K	27.3
303.15 K	26.98
308.15 K	26.61
313.15 K	26.31
318.15 K	25.96
323.15 K	25.63

CC1CCCC(O)C1 (stereo not drawn) [3-methyl-1-cyclohexanol, (cis+trans)]
[1]
Conditions	surface tension liquid-gas [mN/m]
293.15 K	27.82
298.15 K	27.48
303.15 K	27.12
308.15 K	26.76
313.15 K	26.4
318.15 K	26.06
323.15 K	25.7

CC1CCCCC1O (stereo not given) [2-methylcyclohexanol] + OCCO
surface tension liquid-gas [mN/m], [2]
Conditions	293.15 K	298.15 K	303.15 K	308.15 K	313.15 K	318.15 K	323.15 K
x1 = 0.04	40.61	40.3	39.94	39.67	39.4	39.13	38.89
x1 = 0.105	36.13	35.89	35.62	35.32	35.07	34.81	34.56
x1 = 0.2	34.46	34.17	33.85	33.55	33.26	32.98	32.68
x1 = 0.307	33.49	33.2	32.88	32.58	32.22	31.94	31.63
x1 = 0.399	32.94	32.61	32.26	31.96	31.62	31.31	30.97
x1 = 0.514	32.38	32.03	31.68	31.33	30.98	30.69	30.36
x1 = 0.553	32.22	31.87	31.54	31.19	30.81	30.49	30.13
x1 = 0.76	31.72	31.36	30.97	30.61	30.29	29.91	29.52
x1 = 0.791	31.51	31.1	30.73	30.38	30	29.59	29.24
x1 = 0.892	31.2	30.78	30.39	30.05	29.67	29.27	28.87
x1 = 1	31.01	30.57	30.19	29.81	29.37	28.98	28.57

CC1CCC(O)CC1 (stereo not given) [4-methylcyclohexanol] + OCCO
surface tension liquid-gas [mN/m], [2]
Conditions	293.15 K	298.15 K	303.15 K	308.15 K	313.15 K	318.15 K	323.15 K
x1 = 0.05	38.1	37.85	37.64	37.39	37.15	36.9	36.69
x1 = 0.097	34.38	34.18	33.98	33.78	33.6	33.4	33.21
x1 = 0.258	32.47	32.24	32.03	31.79	31.57	31.34	31.1
x1 = 0.329	31.48	31.24	30.99	30.74	30.48	30.26	30.01
x1 = 0.389	30.64	30.37	30.08	29.81	29.55	29.32	29.04
x1 = 0.535	30.35	30.05	29.77	29.48	29.23	28.96	28.68
x1 = 0.623	29.63	29.34	29.02	28.74	28.48	28.18	27.88
x1 = 0.768	29.21	28.92	28.6	28.29	28.02	27.73	27.4
x1 = 0.864	28.71	28.41	28.07	27.76	27.47	27.18	26.84
x1 = 0.899	28.07	27.75	27.43	27.11	26.77	26.45	26.15
x1 = 1	27.63	27.3	26.98	26.61	26.31	25.96	25.63

OCCO [1,2-ethanediol] + CC1CCCCC1O
[2], x2 = 0
Conditions	surface tension liquid-gas [mN/m]
293.15 K	48.55
298.15 K	48.11
303.15 K	47.58
308.15 K	47.14
313.15 K	46.79
318.15 K	46.29
323.15 K	45.99

CC1CCCCC1O (stereo not given) [2-methylcyclohexanol]
[1]
Conditions	surface tension liquid-gas [mN/m]
293.15 K	31.01
298.15 K	30.57
303.15 K	30.19
308.15 K	29.81
313.15 K	29.37
318.15 K	28.98
323.15 K	28.57
